Laboratory results reported in ChEMBL document CHEMBL3774343, “Discovery of CREBBP Bromodomain Inhibitors by High-Throughput Docking and Hit Optimization Guided by Molecular Dynamics” (J Med Chem, 2016).
Peptide text beside a SMILES is read from it.

Tests used:
CREB-binding protein [1] = target: T1, CREB-binding protein (Homo sapiens, UniProt Q92793); experiment: Binding affinity to human CREBBP at 100 uM by thermal shift assay
Target sequence in this assay (Q92793 2-2442 limits assumed): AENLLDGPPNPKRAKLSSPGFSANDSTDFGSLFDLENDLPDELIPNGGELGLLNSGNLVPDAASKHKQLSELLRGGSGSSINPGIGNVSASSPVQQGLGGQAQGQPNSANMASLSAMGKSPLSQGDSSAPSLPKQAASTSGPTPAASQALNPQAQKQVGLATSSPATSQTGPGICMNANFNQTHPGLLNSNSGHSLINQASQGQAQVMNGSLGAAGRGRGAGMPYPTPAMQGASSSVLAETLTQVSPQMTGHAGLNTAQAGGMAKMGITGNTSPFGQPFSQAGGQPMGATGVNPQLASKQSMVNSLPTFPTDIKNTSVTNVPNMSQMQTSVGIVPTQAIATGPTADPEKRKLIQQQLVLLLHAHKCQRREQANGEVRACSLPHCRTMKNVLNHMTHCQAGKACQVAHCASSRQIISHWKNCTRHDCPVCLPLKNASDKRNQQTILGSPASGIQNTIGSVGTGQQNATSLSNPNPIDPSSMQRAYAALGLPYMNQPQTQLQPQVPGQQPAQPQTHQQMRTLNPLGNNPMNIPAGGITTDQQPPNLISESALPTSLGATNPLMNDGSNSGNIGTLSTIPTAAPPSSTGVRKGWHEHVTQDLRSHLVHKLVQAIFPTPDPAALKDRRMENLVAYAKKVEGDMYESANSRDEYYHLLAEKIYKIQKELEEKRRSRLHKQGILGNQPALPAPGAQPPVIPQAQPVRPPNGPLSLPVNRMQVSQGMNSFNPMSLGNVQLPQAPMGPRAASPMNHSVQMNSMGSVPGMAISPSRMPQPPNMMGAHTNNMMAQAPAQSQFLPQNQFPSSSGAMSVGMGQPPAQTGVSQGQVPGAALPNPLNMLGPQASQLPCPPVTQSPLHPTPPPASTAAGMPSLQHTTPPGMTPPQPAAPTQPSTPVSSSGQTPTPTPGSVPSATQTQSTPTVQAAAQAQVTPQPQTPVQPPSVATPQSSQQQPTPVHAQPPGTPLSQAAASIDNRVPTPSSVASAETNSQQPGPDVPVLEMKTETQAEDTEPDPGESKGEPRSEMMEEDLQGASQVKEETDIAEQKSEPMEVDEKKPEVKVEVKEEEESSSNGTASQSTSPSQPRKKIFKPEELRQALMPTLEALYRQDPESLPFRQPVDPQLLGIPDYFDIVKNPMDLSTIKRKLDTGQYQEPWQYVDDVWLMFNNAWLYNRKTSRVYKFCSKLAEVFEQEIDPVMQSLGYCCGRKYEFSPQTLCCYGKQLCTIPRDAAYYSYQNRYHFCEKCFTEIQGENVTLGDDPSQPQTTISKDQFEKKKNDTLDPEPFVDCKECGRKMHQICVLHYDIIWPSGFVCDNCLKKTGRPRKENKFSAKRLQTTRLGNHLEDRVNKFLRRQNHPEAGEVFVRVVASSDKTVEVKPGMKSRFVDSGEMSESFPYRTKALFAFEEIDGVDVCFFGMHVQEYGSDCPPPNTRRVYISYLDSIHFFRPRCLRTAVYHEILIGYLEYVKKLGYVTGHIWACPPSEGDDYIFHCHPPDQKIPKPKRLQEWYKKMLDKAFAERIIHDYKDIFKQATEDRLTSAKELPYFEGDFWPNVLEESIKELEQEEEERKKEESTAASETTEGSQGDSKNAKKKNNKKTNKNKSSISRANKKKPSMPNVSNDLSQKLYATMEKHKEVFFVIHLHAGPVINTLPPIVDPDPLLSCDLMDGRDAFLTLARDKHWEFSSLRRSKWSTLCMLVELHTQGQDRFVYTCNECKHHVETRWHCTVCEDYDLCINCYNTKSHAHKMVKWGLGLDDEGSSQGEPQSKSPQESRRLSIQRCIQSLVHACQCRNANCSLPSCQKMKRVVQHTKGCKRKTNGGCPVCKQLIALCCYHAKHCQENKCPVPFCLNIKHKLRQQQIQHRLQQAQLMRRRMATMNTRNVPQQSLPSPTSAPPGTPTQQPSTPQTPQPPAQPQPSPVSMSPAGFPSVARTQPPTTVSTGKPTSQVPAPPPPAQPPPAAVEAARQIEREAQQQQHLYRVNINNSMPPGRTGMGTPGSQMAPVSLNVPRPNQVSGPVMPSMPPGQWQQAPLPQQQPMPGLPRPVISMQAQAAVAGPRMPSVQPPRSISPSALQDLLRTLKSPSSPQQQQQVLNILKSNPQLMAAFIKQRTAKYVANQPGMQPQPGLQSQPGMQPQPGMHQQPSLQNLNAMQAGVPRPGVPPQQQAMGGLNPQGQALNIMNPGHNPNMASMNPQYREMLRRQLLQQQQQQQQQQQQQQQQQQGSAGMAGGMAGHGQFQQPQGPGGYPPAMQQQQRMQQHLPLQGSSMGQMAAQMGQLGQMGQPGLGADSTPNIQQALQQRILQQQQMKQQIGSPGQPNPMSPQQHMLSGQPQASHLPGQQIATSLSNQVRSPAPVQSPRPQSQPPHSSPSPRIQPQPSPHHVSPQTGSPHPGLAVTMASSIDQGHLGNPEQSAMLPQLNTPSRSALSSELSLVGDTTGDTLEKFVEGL

CREB-binding protein [2] = target: T1, CREB-binding protein; experiment: Competitive binding affinity to partial length human CREBBP expressed in Escherichia coli BL21 after 1 hr by BROMOscan assay
Target sequence in this assay (Q92793 whole entry): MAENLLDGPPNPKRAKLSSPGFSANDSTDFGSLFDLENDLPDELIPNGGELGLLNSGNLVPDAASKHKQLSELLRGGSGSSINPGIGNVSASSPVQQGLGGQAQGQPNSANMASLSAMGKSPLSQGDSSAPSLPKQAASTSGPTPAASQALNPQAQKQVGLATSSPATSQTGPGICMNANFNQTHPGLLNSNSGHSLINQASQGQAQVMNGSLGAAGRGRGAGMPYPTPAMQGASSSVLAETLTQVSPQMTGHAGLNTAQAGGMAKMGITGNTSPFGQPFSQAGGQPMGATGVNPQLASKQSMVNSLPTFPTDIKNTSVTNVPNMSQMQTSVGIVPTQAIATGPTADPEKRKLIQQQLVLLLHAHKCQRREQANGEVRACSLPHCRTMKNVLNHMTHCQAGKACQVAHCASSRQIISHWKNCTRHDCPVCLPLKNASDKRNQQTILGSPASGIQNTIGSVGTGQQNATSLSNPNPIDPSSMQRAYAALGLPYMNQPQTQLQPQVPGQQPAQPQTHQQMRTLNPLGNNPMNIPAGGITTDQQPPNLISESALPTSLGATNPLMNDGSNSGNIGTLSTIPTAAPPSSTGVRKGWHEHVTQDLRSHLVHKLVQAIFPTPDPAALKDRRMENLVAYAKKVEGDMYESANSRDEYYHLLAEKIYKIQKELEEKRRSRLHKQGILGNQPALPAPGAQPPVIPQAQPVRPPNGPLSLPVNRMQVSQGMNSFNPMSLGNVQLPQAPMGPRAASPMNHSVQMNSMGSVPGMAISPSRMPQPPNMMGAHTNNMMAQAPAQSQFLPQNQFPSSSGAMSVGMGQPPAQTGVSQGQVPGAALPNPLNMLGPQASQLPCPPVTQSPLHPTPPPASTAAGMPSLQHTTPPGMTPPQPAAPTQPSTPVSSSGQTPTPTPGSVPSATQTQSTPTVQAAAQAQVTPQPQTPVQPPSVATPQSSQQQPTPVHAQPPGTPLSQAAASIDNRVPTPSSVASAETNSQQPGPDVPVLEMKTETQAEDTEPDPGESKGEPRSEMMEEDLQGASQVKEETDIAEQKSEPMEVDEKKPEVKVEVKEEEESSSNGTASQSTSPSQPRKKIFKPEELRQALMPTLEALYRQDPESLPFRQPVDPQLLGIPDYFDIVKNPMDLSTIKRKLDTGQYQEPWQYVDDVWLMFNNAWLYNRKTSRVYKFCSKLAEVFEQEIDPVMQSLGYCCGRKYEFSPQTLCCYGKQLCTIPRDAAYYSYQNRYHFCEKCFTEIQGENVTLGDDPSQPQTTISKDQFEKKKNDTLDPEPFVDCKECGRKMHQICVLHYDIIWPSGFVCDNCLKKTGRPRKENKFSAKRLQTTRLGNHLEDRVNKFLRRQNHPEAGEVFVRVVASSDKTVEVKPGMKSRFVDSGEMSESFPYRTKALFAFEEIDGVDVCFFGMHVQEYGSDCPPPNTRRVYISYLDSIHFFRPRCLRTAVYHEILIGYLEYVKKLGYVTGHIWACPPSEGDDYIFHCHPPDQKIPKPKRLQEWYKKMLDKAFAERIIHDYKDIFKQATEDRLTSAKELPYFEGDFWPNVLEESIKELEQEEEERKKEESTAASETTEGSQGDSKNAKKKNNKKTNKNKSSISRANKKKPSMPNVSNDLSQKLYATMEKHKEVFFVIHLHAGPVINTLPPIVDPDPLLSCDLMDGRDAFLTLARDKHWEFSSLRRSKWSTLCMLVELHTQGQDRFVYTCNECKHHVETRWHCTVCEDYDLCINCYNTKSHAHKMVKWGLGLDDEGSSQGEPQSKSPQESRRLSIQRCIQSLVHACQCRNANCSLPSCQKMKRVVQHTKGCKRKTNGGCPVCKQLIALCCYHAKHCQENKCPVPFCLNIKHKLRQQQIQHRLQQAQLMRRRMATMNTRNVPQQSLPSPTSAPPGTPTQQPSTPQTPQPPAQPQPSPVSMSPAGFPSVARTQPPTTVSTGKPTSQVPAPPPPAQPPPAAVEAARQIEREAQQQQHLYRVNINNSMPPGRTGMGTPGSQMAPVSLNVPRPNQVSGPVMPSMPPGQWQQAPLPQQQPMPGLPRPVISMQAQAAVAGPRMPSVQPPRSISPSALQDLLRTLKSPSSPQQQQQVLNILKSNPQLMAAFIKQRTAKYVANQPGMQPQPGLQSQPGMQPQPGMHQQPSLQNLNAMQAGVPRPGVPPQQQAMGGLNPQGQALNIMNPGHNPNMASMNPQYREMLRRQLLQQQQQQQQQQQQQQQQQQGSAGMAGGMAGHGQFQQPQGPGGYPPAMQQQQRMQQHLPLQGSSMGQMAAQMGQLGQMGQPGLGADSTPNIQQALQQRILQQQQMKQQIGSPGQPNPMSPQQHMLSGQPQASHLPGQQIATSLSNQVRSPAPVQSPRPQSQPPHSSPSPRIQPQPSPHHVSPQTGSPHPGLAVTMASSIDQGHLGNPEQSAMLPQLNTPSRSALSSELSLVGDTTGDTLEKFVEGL

CREB-binding protein [3] = target: T1, CREB-binding protein; experiment: Binding affinity to N-terminal GST-tagged recombinant human CREBBP expressed in Escherichia coli after 2 hrs using BET bromodomain ligand by TR-FRET assay
Target sequence in this assay (Q92793 whole entry): as above

Homo sapiens = species on record: Homo sapiens; experiment: Selectivity ratio of Kd for BRD4 bromodomain 1 (unknown origin) to Kd for partial length human CREBBP expressed in Escherichia coli BL21
CREB-binding protein [4] = target: T1, CREB-binding protein; experiment: Binding affinity to CREBBP (unknown origin) by fluorescence polarization assay
Target sequence in this assay (Q92793 whole entry): as above

CREB-binding protein [5] = target: T1, CREB-binding protein; experiment: Competitive binding affinity to partial length human CREBBP expressed in Escherichia coli BL21 at 50 uM after 1 hr by BROMOscan assay relative to control
Target sequence in this assay (Q92793 2-2442 limits assumed): as the sequence (Q92793 2-2442 limits assumed) above

CC(=O)c1c(C)[nH]c(C(=O)Nc2cccc(C(=O)O)c2)c1C
ΔTm (CREB-binding protein [1]): 2.3 °C | Kd (CREB-binding protein [2]): 4.2 µM | IC50 (CREB-binding protein [3]): 1.5 µM

CC(=O)c1c(C)[nH]c(C(=O)Nc2cc(C(=O)O)ccc2C)c1C
ΔTm (CREB-binding protein [1]): 1.4 °C | IC50 (CREB-binding protein [3]): > 10 µM

CCOc1ccc(C(C)=O)cc1NC(=O)c1cccc(C(=O)O)c1
Ratio (Homo sapiens): > 65

CC(=O)NCCCC[C@@H]1NC(=O)[C@H](CCCCN)NC(=O)[C@H](Cc2c[nH]c3ccccc23)NC(=O)[C@@H](NC(C)=O)CSSC[C@@H](C(=O)N[C@@H](Cc2ccccc2)C(=O)N[C@@H](CCCCN)C(N)=O)NC(=O)[C@H](CC(C)C)NC1=O (HELM PEPTIDE1{[ac].C.W.K.K.L.C.F.K.[am]}|PEPTIDE2{[ac]}$PEPTIDE1,PEPTIDE2,5:R3-1:R2|PEPTIDE1,PEPTIDE1,2:R3-7:R3$$$V2.0)
IC50 (CREB-binding protein [4]): 5 µM

CCCc1c(C(=O)NCc2c(C)cc(C)[nH]c2=O)[nH]c(C)c1C(C)=O
ΔTm (CREB-binding protein [1]): 0.3 °C | Activity (CREB-binding protein [5]): 3%

COC(=O)c1ccc(C)c(NC(=O)c2[nH]c(C)c(C(C)=O)c2C)c1
Activity (CREB-binding protein [5]): 20%

CC(=O)c1c(C)[nH]c(C(=O)Nc2cc(-c3nnco3)ccc2C)c1C
ΔTm (CREB-binding protein [1]): 0.3 °C | Kd (CREB-binding protein [2]): 13 µM | IC50 (CREB-binding protein [3]): > 100 µM | Activity (CREB-binding protein [5]): 9%

CCn1cnnc1CNC(=O)c1[nH]c(C)c(C(C)=O)c1C
ΔTm (CREB-binding protein [1]): 1.3 °C | Activity (CREB-binding protein [5]): 5%
